Reference: publication PMC8016166, “Identification of a Potent and Selective 5-HT1A Receptor Agonist with In Vitro and In Vivo Antinociceptive Activity” (ACS Chemical Neuroscience, 2020)

System: Male Swiss CB1 mice
Assay: Formalin test
Format: in vivo, mouse
Method: Male Swiss CB1 mice (Envigo, S. Pietro al Natisone (UD)) weighing 25–30 g were used. The animals were kept at a constant room temperature (25 ± 1 °C) under a 12:12 h light and dark cycle, with free access to food and water. Each mouse was used for only one experiment. […] All the tests were performed blind to treatment.
The formalin (5%, 10 μL; Sigma-Aldrich) was injected subcutaneously into the plantar side of the right hind paw.[68] After injection, the mice were immediately placed in a plexiglas box: the total time (in seconds) spent on licking or biting the injected hind paw was recorded every 5 min at selected intervals, 0–10 (phase I) and 10–60 (phase II) min, in the different experimental groups, as an indicator of nociceptive behavior. […] A mean response was then calculated for each phase. […] A vehicle solution containing 10% DMSO was given as a control. Morphine was used as positive control. The test compound and vehicle were […] (i.p.) administered (5 mL/kg) 15 min before the formalin. […] The data are expressed as mean values (SEM). Analyses of variance (two-way repeated measures ANOVA followed by post hoc Bonferroni test) were performed to assess significance using the Instat 3.0 software (GraphPad Software, San Diego, CA). p < 0.05 was considered significant.

## c1ccc(C2(c3ccccc3)OCC(CNCCOc3ccccc3-c3ccncc3)O2)cc1 (racemic) [rac-1, N-[(2,2-diphenyl-1,3-dioxolan-4-yl)methyl]-2-[2-(pyridin-4-yl)phenoxy]ethan-1-ammonium hydrogenoxalate]
10 mg/kg i.p., formalin 5% 10 μL intraplantar
  analgesic effect in first and second phases of the formalin test: significant analgesic effects
1 10 mg/kg i.p., WAY-100635 3 mg/kg i.p. 30 min before, second phase
  analgesic effect after pretreatment with WAY-100635: prevented its analgesic effect
